# Laboratory results taken from DBAASP.
# Key:
# Assay in all cases: ≥ marks a high value that may be exact or a test limit, other limits are often not marked, values filed in µg/mL are converted to µM
# [1] = system: Staphylococcus aureus NBRC 12732
# [2] = system: Bacillus megaterium ATCC 19213
# [3] = system: Bacillus subtilis NBRC 3513
# [4] = system: Staphylococcus epidermidis NBRC 12933
# [5] = system: Cryptococcus neoformans IP962-67
# [6] = system: Trichophyton mentagrophytes IP877-71
# [7] = system: Aspergillus fumigatus IP1025-70
# [8] = system: Aspergillus niger IP218-53
# Acinetobacter baumannii = system: Acinetobacter baumannii
# [9] = system: Saccharomyces cerevisiae IP118079
# [10] = system: Aeromonas caviae IP67-16T
# [11] = system: Enterococcus faecalis IP103214
# [12] = system: Cryptococcus neoformans IP960-67
# [13] = system: Trichophyton simii IP1063-74
# [14] = system: Nocardia brasiliensis IP16-80
# [15] = system: Trichophyton simii J43 IP903-65
# [16] = system: Candida albicans IP886-65
# [17] = system: Staphylococcus aureus IP76-25
# Microsporum canis IP1194 = system: Microsporum canis IP1194
# [18] = system: Trichophyton rubrum IP2043-92
# Escherichia coli IP76-24 = system: Escherichia coli IP76-24
# [19] = system: Candida albicans IP884-65
# [20] = system: Micrococcus luteus ATCC 4698
# [21] = system: Salmonella enterica subsp. enterica serovar Typhimurium ATCC 14028
# Saccharomyces cerevisiae = system: Saccharomyces cerevisiae
# Pseudomonas putida = system: Pseudomonas putida
# [22] = system: Staphylococcus epidermidis ATCC 12228
# [23] = system: Pseudomonas aeruginosa ATCC 9027
# [24] = system: Klebsiella pneumoniae ATCC 10031
# Escherichia coli = system: Escherichia coli
# [25] = system: Proteus mirabilis ATCC 25933
# [26] = system: Bacillus subtilis KCTC 1021
# Candida albicans = system: Candida albicans
# Serratia marcescens = system: Serratia marcescens
# [27] = system: Shigella dysenteriae ATCC 9752
# [28] = system: Klebsiella pneumoniae ATCC 700603
# [29] = system: Staphylococcus aureus ATCC 25923
# Escherichia coli 37 = system: Escherichia coli 37
# [30] = system: Candida parapsilosis ATCC 22019
# [31] = system: Enterococcus faecalis ATCC 29212
# Escherichia coli 218 = system: Escherichia coli 218
# Shigella dysenteriae = system: Shigella dysenteriae
# Staphylococcus aureus 37 = system: Staphylococcus aureus 37
# [32] = system: Enterobacter cloacae ATCC 13047
# Staphylococcus aureus 10 = system: Staphylococcus aureus 10
# [33] = system: Candida albicans ATCC 2002
# [34] = system: Candida albicans ATCC 90028
# [35] = system: Pseudomonas aeruginosa ATCC 27853
# Pseudomonas aeruginosa = system: Pseudomonas aeruginosa
structure (smiles),measurement,setting,value
CC[C@H](C)[C@H](NC(=O)[C@H](C)N)C(=O)N[C@@H](Cc1ccccc1)C(=O)N[C@H](C(=O)N[C@@H](Cc1ccccc1)C(=O)N[C@H](C(=O)N[C@@H](CCCN=C(N)N)C(=O)N[C@@H](Cc1c[nH]c2ccccc12)C(=O)N[C@@H](CC(C)C)C(=O)N[C@@H](CC(C)C)C(=O)N[C@@H](CCCCN)C(=O)O)[C@@H](C)CC)[C@@H](C)CC [AIFIFIRWLLK],MIC,[1],16 µM
same,MIC,[2],16 µM
same,MIC,[3],≥ 32 µM
same,MIC,[4],≥ 32 µM
CSCC[C@H](NC(=O)[C@H](Cc1c[nH]c2ccccc12)NC(=O)[C@H](CC(C)C)NC(=O)[C@H](C)N)C(=O)N[C@H](C(=O)N[C@@H](CC(C)C)C(=O)N[C@@H](CC(C)C)C(=O)N[C@@H](CCCCN)C(=O)N[C@@H](CCCCN)C(=O)N[C@H](C(=O)N[C@@H](CC(C)C)C(=O)N[C@@H](CCCCN)C(=O)N[C@@H](C)C(=O)N[C@@H](C)C(=O)N[C@@H](C)C(=O)N[C@@H](CCCCN)C(=O)N[C@@H](C)C(=O)N[C@@H](CC(C)C)C(=O)N[C@@H](CC(N)=O)C(=O)N[C@@H](C)C(=O)N[C@H](C(=O)N[C@@H](CC(C)C)C(=O)N[C@H](C(=O)NCC(=O)N[C@@H](C)C(=O)N[C@@H](CC(N)=O)C(=O)N[C@@H](C)C(=O)O)C(C)C)C(C)C)C(C)C)[C@@H](C)O [ALWMTLLKKVLKAAAKALNAVLVGANA],MIC,[5],1 µM
same,MIC,[6],20 µM
same,MIC,[7],20 µM
same,MIC,[8],30 µM
same,MIC,Acinetobacter baumannii,4.5 µM
same,MIC,[9],20 µM
same,MIC,[10],0.5 µM
same,MIC,[11],20 µM
same,MIC,[12],2 µM
same,MIC,[13],30 µM
same,MIC,[14],10 µM
same,MIC,[15],20 µM
same,MIC,[16],20 µM
same,MIC,[17],10 µM
same,MIC,Microsporum canis IP1194,15 µM
same,MIC,[18],≥ 40 µM
same,MIC,Escherichia coli IP76-24,4 µM
same,MIC,[19],20 µM
CC[C@H](C)[C@H](NC(=O)CN)C(=O)N[C@@H](CCSC)C(=O)N[C@@H](CO)C(=O)N[C@H](C(=O)N[C@H](C(=O)N[C@@H](CCCCN)C(=O)N[C@@H](CC(=O)O)C(=O)N[C@H](C(=O)N[C@@H](C)C(=O)N[C@@H](CCCCN)C(=O)N[C@@H](CC(N)=O)C(=O)N[C@@H](C)C(=O)N[C@@H](C)C(=O)N[C@@H](CCCCN)C(=O)N[C@@H](CCC(=O)O)C(=O)N[C@@H](C)C(=O)N[C@@H](C)C(=O)N[C@@H](CCCCN)C(=O)NCC(=O)N[C@@H](C)C(=O)N[C@@H](CC(C)C)C(=O)N[C@@H](CO)C(=O)N[C@H](C(=O)N[C@@H](CC(C)C)C(=O)N[C@@H](CO)C(=O)N[C@H]1CSSC[C@@H](C(=O)O)NC(=O)[C@H]([C@@H](C)O)NC(=O)[C@H](CCCCN)NC(=O)[C@H](C)NC(=O)[C@H](CC(C)C)NC(=O)[C@H](CCCCN)NC1=O)[C@@H](C)O)C(C)C)C(C)C)[C@@H](C)CC [GIMSIVKDVAKNAAKEAAKGALSTLSCKLAKTC],MIC,[20],0.753 µM
same,MIC,[21],45.2 µM
same,MIC,Saccharomyces cerevisiae,≥ 45.2 µM
same,MIC,Pseudomonas putida,15.1 µM
same,MIC,[22],3.01 µM
same,MIC,[23],15.1 µM
same,MIC,[24],7.53 µM
same,MIC,Escherichia coli,22.6 µM
same,MIC,[25],≥ 60.2 µM
same,MIC,[26],3.01 µM
same,MIC,Candida albicans,45.2 µM
same,MIC,Serratia marcescens,≥ 60.2 µM
same,MIC,[27],7.53 µM
CC[C@H](C)[C@H](N)C(=O)N[C@@H](CC(N)=O)C(=O)N[C@@H](CC(C)C)C(=O)N[C@@H](CCCCN)C(=O)N[C@@H](C)C(=O)N[C@H](C(=O)N[C@@H](C)C(=O)N[C@@H](C)C(=O)N[C@@H](CC(C)C)C(=O)N[C@H](C(=O)N[C@@H](CCCCN)C(=O)N[C@@H](CCCCN)C(=O)N[C@@H](CC(C)C)C(=O)N[C@@H](CC(C)C)C(=O)O)C(C)C)[C@@H](C)CC [INLKAIAALVKKLL],MIC,[28],26.5 µM
same,MIC,[29],13.3 µM
same,MIC,Escherichia coli 37,26.5 µM
same,MIC,[30],26.5 µM
same,MIC,[31],53.1 µM
same,MIC,Escherichia coli 218,≥ 53.1 µM
same,MIC,Shigella dysenteriae,13.3 µM
same,MIC,Staphylococcus aureus 37,13.3 µM
same,MIC,[32],≥ 53.1 µM
same,MIC,Staphylococcus aureus 10,≥ 53.1 µM
same,MIC,[33],≥ 53.1 µM
same,MIC,[34],≥ 53.1 µM
same,MIC,[35],26.5 µM
same,MIC,Pseudomonas aeruginosa,26.5 µM
